Source: ChEMBL document CHEMBL4402542, “Heat Shock Protein 90 Inhibitors: An Update on Achievements, Challenges, and Future Directions” (J Med Chem, 2020)

Columns and labels:
[1] = Binding affinity to His6-tagged TPR2A (unknown origin) assessed as reduction in fluorescein-labeled C-terminal Hsp90/TRP2A protein-protein interaction incubated for 2 hrs by fluorescence polarization assay; parameters: species or system Homo sapiens
MDA-MB-231 = test: Antiproliferative activity against human MDA-MB-231 cells; assay type: functional, cell-based
NCI-H1299 = test: Antiproliferative activity against human NCI-H1299 cells incubated for 2 days followed by medium replacement by MTT assay; assay type: functional, cell-based; conditions: NCI-H1299, 48 h
[2] = biological target: T1, Heat shock protein HSP 90-alpha (Homo sapiens, UniProt P07900); test: Inhibition of His6-tagged N-terminal human HSP90alpha expressed in Escherichia coli BL21 Lys cells preincubated for 10 mins followed by SA-APC and biotin-GM addition and measured after 6 hrs by TR-FRET assay
Endoplasmin [3] = biological target: T2, Endoplasmin (Homo sapiens, UniProt P14625); test: Displacement of FITC-geldanamycin from GRP94 (unknown origin) after 24 hrs by fluorescence polarization assay
T2 sequence (P14625 whole entry): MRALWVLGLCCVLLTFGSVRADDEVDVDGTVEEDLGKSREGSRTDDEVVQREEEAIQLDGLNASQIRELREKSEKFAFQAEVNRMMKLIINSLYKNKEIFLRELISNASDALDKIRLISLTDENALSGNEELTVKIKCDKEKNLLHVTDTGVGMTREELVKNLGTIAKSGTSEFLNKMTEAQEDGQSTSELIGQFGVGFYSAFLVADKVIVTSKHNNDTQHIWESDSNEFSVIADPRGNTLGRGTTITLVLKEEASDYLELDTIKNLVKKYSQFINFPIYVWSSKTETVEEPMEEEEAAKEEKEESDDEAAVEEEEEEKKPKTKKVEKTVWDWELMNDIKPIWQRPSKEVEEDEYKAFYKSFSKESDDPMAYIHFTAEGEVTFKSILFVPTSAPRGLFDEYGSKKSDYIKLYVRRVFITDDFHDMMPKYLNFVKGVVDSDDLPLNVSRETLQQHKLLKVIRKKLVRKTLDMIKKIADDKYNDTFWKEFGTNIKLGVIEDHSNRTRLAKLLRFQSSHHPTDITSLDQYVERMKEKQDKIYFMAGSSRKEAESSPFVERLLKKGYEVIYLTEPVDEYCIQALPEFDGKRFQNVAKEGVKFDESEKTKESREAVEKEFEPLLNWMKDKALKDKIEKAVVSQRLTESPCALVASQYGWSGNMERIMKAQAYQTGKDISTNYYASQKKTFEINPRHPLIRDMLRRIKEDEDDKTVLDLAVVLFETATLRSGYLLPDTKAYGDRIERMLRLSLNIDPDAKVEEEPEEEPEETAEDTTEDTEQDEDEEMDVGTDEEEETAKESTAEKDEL

MCF7 [4] = test: Antiproliferative activity against human MCF7 cells after 72 hrs by MTS/PMS assay; assay type: functional, cell-based; conditions: MCF7, 72 h
[5] = Binding affinity to His6-tagged TPR2A (unknown origin) by isothermal titration calorimetry; parameters: species or system Homo sapiens
[6] = Antiproliferative activity against rat KNRK5.2 cells; assay type: functional, cell-based
MCF7 [7] = test: Antiproliferative activity against human MCF7 cells; assay type: functional, cell-based
PANC-1 [8] = test: Antiproliferative activity against human PANC1 cells after 24 hrs by MTS assay; assay type: functional, cell-based; conditions: PANC-1, 24 h
PANC-1 [9] = test: Antitumor activity against human PANC1 cells xenografted in athymic mouse at 3 mg/kg, ip administered for 2 continuous days followed by 1 injection per 3 days and measured twice per week relative to control; assay type: functional; conditions: PANC-1, ip, 72 h, read-out: GI
MV4-11 = test: Antiproliferative activity against human MV4-11 cells after 120 hrs by TopCount scintillation analysis; assay type: functional, cell-based; conditions: MV4-11, 120 h
[10] = biological target: T1, Heat shock protein HSP 90-alpha; test: Inhibition of FITC-geldanamycin binding to recombinant human HSP90alpha expressed in Escherichia coli preincubated for 2 hrs followed by Geldanamycin-FITC addition and measured after 5 hrs by fluorescence polarization competitive binding assay
[11] = biological target: Heat shock protein HSP 90-beta (Homo sapiens, UniProt P08238); test: Inhibition of FITC-geldanamycin binding to recombinant human HSP90beta expressed in Escherichia coli preincubated for 2 hrs followed by Geldanamycin-FITC addition and measured after 5 hrs by fluorescence polarization competitive binding assay
Sequence of Heat shock protein HSP 90-beta (P08238 whole entry): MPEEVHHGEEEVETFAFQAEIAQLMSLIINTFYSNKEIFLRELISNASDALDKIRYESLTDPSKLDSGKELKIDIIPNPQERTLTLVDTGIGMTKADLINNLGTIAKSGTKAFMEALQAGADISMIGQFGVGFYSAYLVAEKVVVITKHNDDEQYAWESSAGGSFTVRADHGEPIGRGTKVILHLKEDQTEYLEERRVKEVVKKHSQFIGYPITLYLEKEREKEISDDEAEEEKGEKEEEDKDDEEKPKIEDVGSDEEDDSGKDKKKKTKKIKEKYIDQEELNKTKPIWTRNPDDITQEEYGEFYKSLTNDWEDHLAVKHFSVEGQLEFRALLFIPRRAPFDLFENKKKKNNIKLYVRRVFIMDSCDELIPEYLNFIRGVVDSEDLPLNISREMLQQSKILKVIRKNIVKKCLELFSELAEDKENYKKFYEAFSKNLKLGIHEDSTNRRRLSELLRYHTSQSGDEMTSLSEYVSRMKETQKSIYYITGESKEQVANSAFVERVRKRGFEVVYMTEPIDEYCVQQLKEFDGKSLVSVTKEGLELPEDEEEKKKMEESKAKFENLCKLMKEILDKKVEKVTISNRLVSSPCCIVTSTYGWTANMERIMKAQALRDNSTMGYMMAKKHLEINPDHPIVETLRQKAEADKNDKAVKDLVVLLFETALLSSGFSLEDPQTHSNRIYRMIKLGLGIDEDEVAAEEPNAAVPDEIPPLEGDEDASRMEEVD

Endoplasmin [12] = biological target: T2, Endoplasmin; test: Inhibition of FITC-geldanamycin binding to N-terminal His-tagged recombinant human GRP94 expressed in Escherichia coli preincubated for 2 hrs followed by Geldanamycin-FITC addition and measured after 5 hrs by fluorescence polarization competitive binding assay
[13] = biological target: T3, Heat shock protein 75 kDa, mitochondrial (Homo sapiens, UniProt Q12931); test: Inhibition of FITC-geldanamycin binding to N-terminal His-tagged recombinant human TRAP1 (60 to 704 residues) expressed in Escherichia coli preincubated for 2 hrs followed by Geldanamycin-FITC addition and measured after 5 hrs by fluorescence polarization competitive binding assay
T3 sequence (Q12931 whole entry): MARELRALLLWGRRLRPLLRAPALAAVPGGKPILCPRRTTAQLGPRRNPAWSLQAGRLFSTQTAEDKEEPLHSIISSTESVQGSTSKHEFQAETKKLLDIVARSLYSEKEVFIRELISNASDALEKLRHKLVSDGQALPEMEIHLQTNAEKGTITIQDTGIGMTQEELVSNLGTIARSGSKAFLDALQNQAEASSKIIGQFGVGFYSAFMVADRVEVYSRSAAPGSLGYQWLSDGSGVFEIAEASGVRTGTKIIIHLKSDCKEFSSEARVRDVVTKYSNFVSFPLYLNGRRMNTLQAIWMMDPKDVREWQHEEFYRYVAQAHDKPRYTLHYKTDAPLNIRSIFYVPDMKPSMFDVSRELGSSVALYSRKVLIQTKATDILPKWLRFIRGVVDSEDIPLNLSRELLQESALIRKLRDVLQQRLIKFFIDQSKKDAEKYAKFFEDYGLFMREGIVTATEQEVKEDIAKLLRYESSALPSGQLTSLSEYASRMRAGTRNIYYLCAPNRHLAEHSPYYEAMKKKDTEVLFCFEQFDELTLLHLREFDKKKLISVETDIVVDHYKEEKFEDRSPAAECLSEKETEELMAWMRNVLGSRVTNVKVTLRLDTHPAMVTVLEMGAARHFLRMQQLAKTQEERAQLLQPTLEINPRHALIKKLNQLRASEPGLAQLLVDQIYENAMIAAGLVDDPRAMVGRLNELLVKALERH

PANC-1 [14] = test: Antiproliferative activity against human PANC1 cells after 48 hrs by MTS assay; assay type: functional, cell-based; conditions: PANC-1, 48 h
MIA PaCa-2 = test: Antiproliferative activity against human MIAPaCa2 cells after 48 hrs by MTS assay; assay type: functional, cell-based; conditions: MIA PaCa-2, 48 h
BXPC-3 = test: Antiproliferative activity against human BxPC3 cells after 48 hrs by MTS assay; assay type: functional, cell-based; conditions: BXPC-3, 48 h

With CCCc1nc2c(=O)n(C)c(=O)nc-2n(C)n1 as the compound, how does the Kd [1] read?
Its Kd is 202 nM.

What about the IC50 (MDA-MB-231) of the same compound?
The IC50 was 1750 nM.

Which Kd [1] does the source give for Cn1nc(Cc2ccccc2)nc2c(=O)n(C)c(=O)nc1-2 here?
The Kd was 566 nM.

With CCn1nc(-c2ccccc2)nc2c(=O)n(C)c(=O)nc1-2 as the compound, how does the Kd [1] read?
Its Kd is 928 nM.

For Cn1nc(-c2ccccc2)nc2c(=O)n(C)c(=O)nc1-2, which Kd [1] is on record?
The Kd was 1040 nM.

For COc1ccc(CC(=O)c2ccc3c(c2OC)C=CC(C)(C)O3)cc1OC, which IC50 (NCI-H1299) is on record?
The IC50 was 140 nM.

Which IC50 [2] does the source give for COc1cccc(C(=O)NC2CC3CCC(C2)N3c2ccc(C(N)=O)cn2)c1C (stereo unspecified) here?
The IC50 was 641 nM.

With CC(C)c1cc(C(=O)N2Cc3ccccc3C2)c(O)c2cnoc12 as the compound, how does the Kd (Endoplasmin [3]) read?
The Kd was 8480 nM.

For CC(C)=CCc1c(O)cc2occ(-c3ccc(Cl)c(Cl)c3)c(=O)c2c1O, which IC50 (MCF7 [4]) is on record?
The IC50 was 7300 nM.

Which Kd [1] does the source give for CCn1nc(-c2cccs2)nc2c(=O)n(C)c(=O)nc1-2 here?
Its Kd is 308 nM.

With Cc1nc2c(=O)n(C)c(=O)nc-2n(C)n1 as the compound, how does the Kd [5] read?
The Kd was 16000 nM.

And the Kd [1]?
The Kd was 365 nM.

Which IC50 [6] does the source give for C[C@@H]1C[C@H]2O[C@@H]2\C=C/C=C/C(=N\O)Cc2c(Cl)c(O)cc(O)c2C(=O)O1 here?
Its IC50 is 39 nM.

Which IC50 (MCF7 [7]) does the source give for COc1c(C)cnc(Cn2cnc3c(Cl)nc(N)nc32)c1C [BIIB021] here?
The IC50 was 310 nM.

For CC1=C(O)C(=O)C=C2C1=CC=C1[C@@]2(C)CC[C@@]2(C)[C@@H]3C[C@](C)(C(=O)O)CC[C@]3(C)CC[C@]12C [CELASTROL], which IC50 (PANC-1 [8]) is on record?
Its IC50 is 3000 nM.

What about the inhibition in vivo at 3 mg/kg (PANC-1 [9]) of the same compound?
The inhibition in vivo at 3 mg/kg was 80%.

With CN(C)c1cc2c(cc1Sc1nc3c(N)nccc3n1CCNCC(C)(C)C)OCO2 [CUDC-305] as the compound, how does the IC50 (MV4-11) read?
Its IC50 is 100 nM.

For CO[C@@H]1[C@@H](OC(N)=O)[C@@H](O)[C@H](Oc2ccc3c(O)c(NC(=O)c4ccc(O)c(CC=C(C)C)c4)c(=O)oc3c2C)OC1(C)C [NOVOBIOCIN], which IC50 (MCF7 [7]) is on record?
The IC50 was 256000 nM.

With CC(C)NCCCn1c(Sc2cc3c(cc2I)OCO3)nc2c(N)ncnc21 [PU-H71] as the compound, how does the IC50 (MCF7 [7]) read?
The IC50 was 90 nM.

With CCc1cc(C(N)=O)ccc1-n1nc(C(C)C)c2c(-n3cnc(-c4cnn(C)c4)c3)ccnc21 [TAS-116] as the compound, how does the Ki [10] read?
The Ki was 34.7 nM.

And the Ki [11]?
The Ki was 21.3 nM.

What about the Ki (Endoplasmin [12]) of the same compound?
The Ki was greater than 50000 nM.

And the Ki [13]?
Its Ki is greater than 50000 nM.

With CC1=C(CO)C(=O)O[C@@H]([C@@H](C)[C@H]2CC[C@H]3[C@@H]4C[C@H]5O[C@]56[C@@H](O)C=CC(=O)[C@]6(C)[C@H]4CC[C@]23C)C1 [WITHAFERIN A] as the compound, how does the IC50 (PANC-1 [14]) read?
The IC50 was 1240 nM.

And the IC50 (MIA PaCa-2)?
The IC50 was 2930 nM.

What about the IC50 (BXPC-3) of the same compound?
The IC50 was 2780 nM.
